The supplement of paper PMC9013687
± gives the standard deviation of the averaged measurements.

Columns and labels:
[1] = system: Danio rerio embryo; assay: EC10 Pericard size_Increase; higher = less potent; settings: exposure time: 4 dpf
Procedure: (§1)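 Zebrafish embryos (UFZ-OBI strain) were exposed from 2 hpf for 48 h (2 dpf) or 96 h (4 dpf) at 28 °C; spontaneous tail coiling was scored at 25 hpf. Morphological features from automated image analysis (FishInspector), heart rate and locomotor response were fitted with drc models. Quantal endpoints were dichotomised at 2.5 SD from controls and fitted with a log-logistic model; heart rate, pigmentation and STC were normalised to the replicate control mean. Betamethasone was tested as betamethasone dipropionate, diflorasone as diflorasone diacetate.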

[2] = system: Danio rerio embryo; assay: EC10 Body length_Decrease; higher = less potent; settings: exposure time: 4 dpf
Procedure: as §1

[3] = system: Danio rerio embryo; assay: EC10 Bladder size_Decrease; higher = less potent; settings: exposure time: 4 dpf
Procedure: as §1

[4] = system: Danio rerio embryo; assay: EC50 Bladder size_Decrease; settings: exposure time: 4 dpf
Procedure: as §1

[5] = system: Danio rerio embryo; assay: spontaneous tail coiling frequency (coils/min/embryo); higher = more spontaneous movement; settings: 25 hpf
Procedure: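 Spontaneous tail coilings of zebrafish embryos exposed from 2 hpf were recorded at 24-25 hpf in 1-min videos and detected by a KNIME workflow from grey-value variance. Betamethasone was tested as the dipropionate, diflorasone as the diacetate.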

[6] = system: Danio rerio embryo; assay: EC10 Lack of SB; higher = less potent; settings: exposure time: 4 dpf
Procedure: as §1

[7] = system: Danio rerio embryo; settings: exposure time: 4 dpf
Procedure: as §1

[8] = system: Danio rerio embryo; assay: EC50 Body length_Decrease; settings: exposure time: 4 dpf
Procedure: as §1

[9] = system: Danio rerio embryo; assay: EC20 Bladder size_Decrease; higher = less potent; settings: exposure time: 4 dpf
Procedure: as §1

[10] = system: Danio rerio embryo; assay: EC20 LMR dark; higher = less potent; settings: exposure time: 4 dpf
Procedure: as §1

[11] = system: Danio rerio embryo; assay: EC10 LMR dark; higher = less potent; settings: exposure time: 4 dpf
Procedure: as §1

[12] = system: Danio rerio embryo; assay: EC20 Pericard size_Increase; higher = less potent; settings: exposure time: 4 dpf
Procedure: as §1

[13] = system: Danio rerio embryo; assay: EC50 Pericard size_Increase; settings: exposure time: 4 dpf
Procedure: as §1

[14] = system: Danio rerio embryo; assay: EC20 Lack of SB; higher = less potent; settings: exposure time: 4 dpf
Procedure: as §1

[15] = system: Danio rerio embryo; settings: exposure time: 4 dpf; remark: listed apart in the source
Procedure: as §1

[16] = system: Danio rerio embryo; assay: EC20 Body length_Decrease; higher = less potent; settings: exposure time: 4 dpf
Procedure: as §1

## Cc1cc2c(s1)Nc1ccccc1N=C2N1CCN(C)CC1 [Olanzapine]
[1]
  EC10 Pericard size Increase: 26.4 µM
[2]
  EC10 Body length Decrease: 17.7 µM
[3]
  EC10 Bladder size Decrease: 7.17 µM
[4]
  EC50 Bladder size Decrease: 9.13 µM
[5]; 5.4 µM
  spontaneous tail coiling frequency: 2.35 ± 0.46
[5]; 8.1 µM
  spontaneous tail coiling frequency: 2.37 ± 0.57
[5]; 12.1 µM
  spontaneous tail coiling frequency: 2.38 ± 0.45
[5]; 18.1 µM
  spontaneous tail coiling frequency: 1.89 ± 0.88
[5]; 27.2 µM
  spontaneous tail coiling frequency: 2.465 ± 0.0071
[5]; 32 µM
  spontaneous tail coiling frequency: 2.44 ± 0.63
[6]
  EC10 Lack of SB: 8.09 µM
[7]
  EC50 Lack of SB: 9.71 µM
[8]
  EC50 Body length Decrease: 43.8 µM
[9]
  EC20 Bladder size Decrease: 7.84 µM
[10]
  EC20 LMR dark: 9.63 µM
[11]
  EC10 LMR dark: 5.65 µM
[12]
  EC20 Pericard size Increase: 34.1 µM
[13]
  EC50 Pericard size Increase: 53.1 µM
[14]
  EC20 Lack of SB: 8.65 µM
[15]
  EC50 LMR dark: 24 µM
[16]
  EC20 Body length Decrease: 24.7 µM
